In patent US20250122219A1 (priority 2023, published 2025):
pEC50: −log10 of the molar value. Like-named read-outs stand apart in the source and are kept apart here.

How the values were obtained:
HIV-1 (IIIB) = experiment: Antiviral assay in MT-4 cells; format: cell-based; settings: for pEC50: Human immunodeficiency virus 1, MT4, 120 h, HIV-1 IIIB in MT-4 cells, 5 days incubation, Cell Titer Glo, read-out: MT4 EC50
How it was run: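 Read-out: CellTiter-Glo luminescence after 5 days at 37 °C, reflecting survival of MT-4 cells infected with HIV-1 IIIB (1:250 fresh stock dilution) versus mock-infected. Compounds serially diluted into RPMI with 10% FBS; AZT at 5 μM served as positive control.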

[1] = Cytotoxicity assay in MT-4 cells; format: cell-based; settings: human; uninfected MT-4 cells, 5 days incubation, Cell Titer Glo; read-out: MT4 CC50
How it was run: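 Viability read by Cell Titer Glo luminescence after 5 days at 37 °C. MT-4 cells, not infected, in complete RPMI (10% FBS), received compound dilution series. Base cytotoxicity set with […] puromycin.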

SMILES	pEC50 (HIV-1 (IIIB))	CC50 at 5 days [1] [µM]	EC50 (HIV-1 (IIIB); Human immunodeficiency virus 1, IIIB, MT4, 120 h, read-out: MT4 EC50 (nM)) [nM]
CCCCCCCCOC(=O)Oc1c2n(cc(C(=O)NCc3ccc(F)cc3F)c1=O)[C@@H]1CN(C2=O)[C@@H](C)CC[C@]12CC(OC)=NO2 [Example 136, (3′S,5S,7′R)-10′-((2,4-difluorobenzyl)carbamoyl)-3-methoxy-3′-methyl-1′,11′-dioxo-1′,4′,5′,11′-tetrahydro-3′H,4H,7′H-spiro[isoxazole-5,6′-[2,7]methanopyrido[1,2-a][1,4]diazonin]-12′-yl octyl carbonate]	9.30	23.5	
CC1=NO[C@@]2(CC[C@H](C)N3C[C@H]2n2cc(C(=O)NCc4ccc(F)cc4F)c(=O)c(OC(=O)OCCC(C)C)c2C3=O)C1 [Example 150, (3′S,5S,7′R)-10′-((2,4-difluorobenzyl)carbamoyl)-3,3′-dimethyl-1′,11′-dioxo-1′,4′,5′,11′-tetrahydro-3′H,4H,7′H-spiro[isoxazole-5,6′-[2,7]methanopyrido[1,2-a][1,4]diazonin]-12′-yl isopentyl carbonate]	9.82	16	
CCCCCCCCCCCCCCCCCCOC(=O)Oc1c2n(cc(C(=O)NCc3ccc(F)cc3F)c1=O)[C@@H]1CN(C2=O)[C@@H](C)CC[C@]12CC(OC)=NO2 [Example 147, (3′S,5S,7′R)-10′-((2,4-difluorobenzyl)carbamoyl)-3-methoxy-3′-methyl-1′,11′-dioxo-1′,4′,5′,11′-tetrahydro-3′H,4H,7′H-spiro[isoxazole-5,6′-[2,7]methanopyrido[1,2-a][1,4]diazonin]-12′-yl octadecyl carbonate]	8.15	≥ 50	
COCCOCCOC(=O)OCOc1c2n(cc(C(=O)NCc3ccc(F)cc3F)c1=O)[C@@H]1CN(C2=O)[C@@H](C)CC[C@]12CC(C)=NO2 [Example 23, (((3′S,5S,7′R)-10′-((2,4-difluorobenzyl)carbamoyl)-3,3′-dimethyl-1′,11′-dioxo-1′,4′,5′,11′-tetrahydro-3′H,4H,7′H-spiro[isoxazole-5,6′-[2,7]methanopyrido[1,2-a][1,4]diazonin]-12′-yl)oxy)methyl (2-(2-methoxyethoxy)ethyl) carbonate]	8.55	27.3	
CCCCCCCCCCCCCCCC(=O)OCOc1c2n(cc(C(=O)NCc3ccc(F)cc3F)c1=O)[C@@H]1CN(C2=O)[C@@H](C)CC[C@]12CC(OC)=NO2 [Example 104, (((3′S,5S,7′R)-10′-((2,4-difluorobenzyl)carbamoyl)-3-methoxy-3′-methyl-1′,11′-dioxo-1′,4′,5′,11′-tetrahydro-3′H,4H,7′H-spiro[isoxazole-5,6′-[2,7]methanopyrido[1,2-a][1,4]diazonin]-12′-yl)oxy)methyl palmitate]	7.93	≥ 50	
CCCCCCCCCCCCCCCCOC(=O)OCOc1c2n(cc(C(=O)NCc3ccc(F)cc3F)c1=O)[C@@H]1CN(C2=O)[C@@H](C)CC[C@]12CC(OC)=NO2 [Example 195, (((3′S,5S,7′R)-10′-((2,4-difluorobenzyl)carbamoyl)-3-methoxy-3′-methyl-1′,11′-dioxo-1′,4′˜5′,11′-tetrahydro-3′H,4H,7′H-spiro[isoxazole-5,6′-[2,7]methanopyrido[1,2-a][1,4]diazonin]-12′-yl)oxy)methyl hexadecyl carbonate]	7.47	≥ 50	
COCCOCCOC(=O)Oc1c2n(cc(C(=O)NCc3ccc(F)cc3F)c1=O)[C@@H]1CN(C2=O)[C@@H](C)CC[C@]12CC(OC)=NO2 [Example 2, (3′S,5S,7′R)-1O′-((2,4-difluorobenzyl)carbamoyl)-3-methoxy-3′-methyl-1′,11′-dioxo-1′,4′,5′,11′-tetrahydro-3′H,4H,7′H-spiro[isoxazole-5,6′-[2,7]methanopyrido[1,2-a][1,4]diazonin]-12′-yl (2-(2-methoxyethoxy)ethyl) carbonate]		11.5	0.79
